From article PMC7179297, “Preclinical Antimalarial Combination Study of M5717, a Plasmodium falciparum Elongation Factor 2 Inhibitor, and Pyronaridine, a Hemozoin Formation Inhibitor” (Antimicrobial Agents and Chemotherapy, 2020)
Where “and” joins values, the source holds several entries; their conditions need not be identical. Equal values may be shown once. Read-outs that look alike come from different tables or passages of the source. Marks after values point to notes of the source that are not given here.

Experiments:
[1] = tested on: P. falciparum Pf3D70087/N9; test: Murine P. falciparum SCID model, efficacy and recrudescence; assay type: in vivo, Plasmodium falciparum; conditions: for Parasitemia Day 3: day 3 = day of treatment
Experimental: Compound efficacy was assessed in the murine P. falciparum SCID model essentially as described by Jimenez-Díaz et al. ([20]). Briefly, alone or in combination, M5717 (succinate salt by Merck KGaA [MSC2576186-B4]) and pyronaridine (tetraphosphate salt, Sigma-Aldrich [P0049]) were formulated in 7% Tween80, 3% ethanol and administered to a cohort of age-matched female immunodeficient NOD-scid IL-2Rγ^null mice (Jackson Laboratory, Bar Harbor, ME). These mice had been previously engrafted with human erythrocytes (generously provided by the blood bank in Zürich, Switzerland). Prior to compound treatment, mice were intravenously infected with 2 × 10^7 P. falciparum Pf3D7^0087/N9 -infected erythrocytes (day 0) ([30]). On day 3 after infection, mice, in groups of 2 to 5, were randomly allocated to treatments that were administered with a single oral gavage at 10 ml/kg (Table 2 and Fig. 2). Parasitemia was measured by microscopy. Chimerism was monitored by flow cytometry using an anti-murine erythrocyte TER119 monoclonal antibody (Pharmingen, San Diego, CA) and SYTO-16 and then analyzed by flow cytometry in serial blood samples (2 μl) collected every 2 to 3 days until the completion of the experiment (Table 2, day 60 and Fig. 2, day 80). Parasite recrudescence was detected by microscopy. Once parasitemia exceeded 0.5%, then 100 to 500 μl of blood was collected and stored at –80°C for subsequent sequence analysis. Animals received a second treatment with the same dose and if applicable the same combination of compounds as previously administered in that dose group (Fig. 2). Efficacy was again monitored by microscopy. If recrudescence occurred again then new blood samples were stored at –80°C.
Time-to-recrudescence data were analyzed using the Kaplan-Meier method. Log-rank test was performed for two-group comparisons. Kaplan-Meier curves and log-rank test P values, as well as median estimates for time to recrudescence, are presented (SAS, Version 9.4. Cary, NC: SAS Institute Inc.; 2014).

[2] = Pharmacokinetic analysis in blood of mice from the efficacy study; assay type: in vivo; conditions: for AUC(0-inf) / half-life: NOD-scid IL-2Rγnull, mouse, whole blood, po; for AUC(0-inf): mean ± SD; for half-life / pharmacokinetics in combination versus single-agent treatment / half-life (t1/2): mice; for half-life / half-life (t1/2): administered alone, single oral dose; for half-life: read-out: half-life (t1/2) (converted); for pharmacokinetics in combination versus single-agent treatment: Cmax, AUC0-inf and t1/2, entries 8 to 11
Experimental: The test compounds’ concentrations in blood were assessed in order to determine pharmacokinetic parameters in mice from the efficacy study. Peripheral blood samples (20 μl) were sampled at different time points (1, 2, 4, 6, 24, 48, 72, 96, 168, and 216 h post treatment), mixed with 20 μl of H2O Milli Q and immediately frozen on dry ice. Samples were stored at –80°C until analysis. Blood from control mice was used for bioanalysis calibration and QC purposes. For liquid chromatography with tandem mass spectrometry (LC-MS/MS) analysis, the frozen samples were thawed and treated with two volumes equivalent of acetonitrile containing the internal standard. After centrifugation, one volume equivalent of supernatant was diluted with one volume equivalent of water containing heptafluorobutyric acid (HFBA). The extracts were analyzed by LC-MS/MS (quantification by HESI ionization in positive ion mode) performed at Swiss BioQuant AG (Switzerland). A noncompartmental analysis was performed to determine pharmacokinetic parameters using the Phoenix WinNonlin program (version 6.3).
56 Pharmacokinetic parameters
57 The pharmacokinetic analysis was performed non-compartmentally using the extravascular model. For the analysis,
58 concentrations below the LLOQ were set to 0. The following pharmacokinetic parameters of the analytes were
59 derived from the concentration-time profiles.
C0 The pre-dose concentration assumed to be 0 on the day of oral dosing.
tmax Time where the concentration in matrix is the highest.
Cmax/dose Cmax normalized to the dose of 1 mg/kg.
AUC0-t Area under the matrix concentration -time curve from 0 h to time t calculated using
the linear trapezoidal rule , using C0 as defined above.
AUC0-∞ Area under the matrix concentration -time curve from 0 h to infinity calculated using
AUC0-∞/dose AUC0-∞ normalized to a dose of 1 mg/kg.
61 Software for calculations: Phoenix WinNonlin program (version 6.3).
62 All concentration values and pharmacokinetic parameters were rounded to 3 significant digits.
63 The numbers listed for %bias and %CV were rounded to 1 decimal place.

[3] = pyronaridine 6 mg/kg single oral dose (entry 5)
[4] = pyronaridine 12 mg/kg single oral dose (entry 6)
[5] = pyronaridine 12 mg/kg single oral dose (entry 6), LLQ <0.01%
[6] = pyronaridine 36 mg/kg single oral dose (entry 7)
[7] = pyronaridine 36 mg/kg single oral dose (entry 7), LLQ <0.01%
[8] = M5717 3 mg/kg single oral dose (entry 1)
[9] = M5717 6 mg/kg single oral dose (entry 2)
[10] = M5717 12 mg/kg single oral dose (entry 3)
[11] = M5717 30 mg/kg single oral dose (entry 4)

Structure (SMILES): COc1ccc2nc3cc(Cl)ccc3c(Nc3cc(CN4CCCC4)c(O)c(CN4CCCC4)c3)c2n1 [pyronaridine]
- Parasitemia Day 4 [1, 3]: 0.09%
- Parasitemia Day 5 [1, 3]: 0.01%
- Parasitemia Day 6 ([1]; pyronaridine 6 mg/kg single oral dose (entry 5), LLQ <0.01%): 0.00^d %
- Parasitemia Day 3 [1, 3]: 0.89%
- Parasitemia Day 4 [1, 4]: 0.13%
- Mean DoR (day of recrudescence) ([1]; pyronaridine 12 mg/kg single oral dose (entry 6), uncorrected): 35 days postinfection
- Parasitemia Day 5 [1, 5]: 0.00^d %
- Parasitemia Day 6 [1, 5]: 0.00^d %
- Parasitemia Day 3 [1, 4]: 1.51%
- Parasitemia Day 4 [1, 6]: 0.12%
- Parasitemia Day 5 [1, 7]: 0.00^d %
- Parasitemia Day 6 [1, 7]: 0.00^d %
- Parasitemia Day 3 [1, 6]: 1.61%
- Mean DoR (day of recrudescence) ([1]; pyronaridine 36 mg/kg single oral dose (entry 7), experiment ended at day 60 with parasitemia <0.01%): ≥60^e days postinfection
- AUC(0-inf) ([2]; 6 mg/kg, pyronaridine 6 mg/kg single oral dose (entry 5), read-out: Pyronaridine exposure AUC0-inf): 6560 ng·h/mL
- AUC(0-inf) ([2]; 12 mg/kg, M5717 12 mg/kg + pyronaridine 12 mg/kg single oral dose (entry 10), read-out: Pyronaridine exposure AUC0-inf): 12100 ng·h/mL
- AUC(0-inf) ([2]; 12 mg/kg, pyronaridine 12 mg/kg single oral dose (entry 6), read-out: Pyronaridine exposure AUC0-inf): 14500 ng·h/mL
- AUC(0-inf) ([2]; 36 mg/kg, pyronaridine 36 mg/kg single oral dose (entry 7), read-out: Pyronaridine exposure AUC0-inf): 55600 ng·h/mL
- AUC(0-inf) ([2]; M5717 3 mg/kg + pyronaridine 6 mg/kg single oral dose (entry 8), read-out: Pyronaridine exposure AUC0-inf): 8500 ng·h/mL
- AUC(0-inf) ([2]; M5717 6 mg/kg + pyronaridine 36 mg/kg single oral dose (entry 11), read-out: Pyronaridine exposure AUC0-inf): 58200 ng·h/mL
- AUC(0-inf) ([2]; M5717 12 mg/kg + pyronaridine 6 mg/kg single oral dose (entry 9), read-out: Pyronaridine exposure AUC0-inf): 8490 ng·h/mL
- half-life [2]: ~74 h
- pharmacokinetics in combination versus single-agent treatment [2]: No change
- half-life (t1/2) [2]: 74 h

Structure (SMILES): O=C(NCCN1CCCC1)c1cc(-c2ccc(CN3CCOCC3)cc2)nc2ccc(F)cc12 [M5717]
- Parasitemia Day 4 [1, 8]: 0.65%
- Parasitemia Day 5 [1, 8]: 0.49%
- Parasitemia Day 6 [1, 8]: 0.19%
- Mean DoR (day of recrudescence) ([1]; M5717 3 mg/kg single oral dose (entry 1), uncorrected): 6 days postinfection
- Parasitemia Day 3 [1, 8]: 1.2%
- Parasitemia Day 4 [1, 9]: 1.4%
- Parasitemia Day 5 [1, 9]: 1.03%
- Parasitemia Day 6 [1, 9]: 0.46%
- Mean DoR (day of recrudescence) ([1]; M5717 6 mg/kg single oral dose (entry 2), uncorrected): 17 days postinfection
- Parasitemia Day 3 [1, 9]: 1.26%
- mice in which resistance evolved ([1]; M5717 12 mg/kg arm): 5/5
- Parasitemia Day 4 [1, 10]: 0.58%
- Parasitemia Day 5 [1, 10]: 0.53%
- Parasitemia Day 6 [1, 10]: 0.11%
- Mean DoR (day of recrudescence) ([1]; M5717 12 mg/kg single oral dose (entry 3), uncorrected): 24 days postinfection
- Parasitemia Day 3 [1, 10]: 0.81%
- median time to recrudescence ([1]; M5717 12 mg/kg single oral dose, all mice n = 5, Kaplan-Meier, 12 mg/kg): 19 days
- day postinfection at which LLQ was reached ([1]; M5717 12 mg/kg single oral dose, n = 5 (Fig. 2A)): 8 days
- median time to recrudescence ([1]; M5717 12 mg/kg, mice showing no response to retreatment (M1, M2, M3, n = 3)): 18 days
- response to retreatment with the same dosing regimen ([1]; M5717 12 mg/kg, mice with early recrudescence (D17, D18, D19)): not susceptible
- response to retreatment with the same dosing regimen ([1]; M5717 12 mg/kg, mice with later recrudescence (D23, D24)): responded partially
- median time to recrudescence ([1]; M5717 12 mg/kg, mice with later recrudescence (M4 and M5, n = 2)): 23.5 days
- Parasitemia Day 4 [1, 11]: 0.73%
- Parasitemia Day 5 [1, 11]: 0.54%
- Parasitemia Day 6 [1, 11]: 0.21%
- Mean DoR (day of recrudescence) ([1]; M5717 30 mg/kg single oral dose (entry 4), uncorrected): 24 days postinfection
- Parasitemia Day 3 [1, 11]: 0.89%
- Parasitemia for the individual mice at blood draw ([1]; M5717 1x30 mg/kg single oral dose, recrudescent samples 1.1 and 1.2): 3.25% and 0.50%
- Recrudescence day post infection ([1]; M5717 1x30 mg/kg single oral dose, samples 1.1 and 1.2): 24
- breakpoint between both phases of biphasic clearance of parasitemia ([1]; M5717 alone at 3, 6, 12 and 30 mg/kg): around 48 h
- AUC(0-inf) ([2]; 3 mg/kg, M5717 3 mg/kg single oral dose (entry 1), read-out: M5717 exposure AUC0-inf): 1570 ng·h/mL
- AUC(0-inf) ([2]; 6 mg/kg, M5717 6 mg/kg single oral dose (entry 2), read-out: M5717 exposure AUC0-inf): 3390 ng·h/mL
- AUC(0-inf) ([2]; 12 mg/kg, M5717 12 mg/kg + pyronaridine 12 mg/kg single oral dose (entry 10), read-out: M5717 exposure AUC0-inf): 6650 ng·h/mL
- AUC(0-inf) ([2]; 12 mg/kg, M5717 12 mg/kg single oral dose (entry 3), read-out: M5717 exposure AUC0-inf): 6160 ng·h/mL
- AUC(0-inf) ([2]; 30 mg/kg, M5717 30 mg/kg single oral dose (entry 4), read-out: M5717 exposure AUC0-inf): 16900 ng·h/mL
- AUC(0-inf) ([2]; M5717 3 mg/kg + pyronaridine 6 mg/kg single oral dose (entry 8), read-out: M5717 exposure AUC0-inf): 1360 ng·h/mL
- AUC(0-inf) ([2]; M5717 6 mg/kg + pyronaridine 36 mg/kg single oral dose (entry 11), read-out: M5717 exposure AUC0-inf): 2980 ng·h/mL
- AUC(0-inf) ([2]; M5717 12 mg/kg + pyronaridine 6 mg/kg single oral dose (entry 9), read-out: M5717 exposure AUC0-inf): 6400 ng·h/mL
- half-life [2]: ~37 h
- pharmacokinetics in combination versus single-agent treatment [2]: unchanged
- half-life (t1/2) [2]: 37 h
